Assays:
naive rats (Wistar) [1] = experiment: Fear conditioning + extinction + stabilization (PTSD model); assay type: in vivo, rat
Description: Several animal models have been developed to mimic the traumatic events that induce intense and recurrent fear symptoms characteristic of PTSD. • Pavlovian fear conditioning of the animals: This animal model consists of Pavlovian-type fear conditioning (Zovkic, Neuropsychopharmacology Reviews (2013) 38, 77-93): mice (or rats) are trained to associate exposure to danger (electric shock, etc.) with the presence of a specific cue or environment (sound cue for example). The memory of this association (danger-cue) is later tested by measuring tetany behavior (through fear) when the animal is re-exposed to the conditioning cue in the absence of real danger.
Again, the occurrence of symptoms of PTSD are assessed after a certain period of time, without exposure to the hazard, to simulate the long-term onset of PTSD pathology. • Fear extinction: After a fear conditioning as described above it can be of interest to apply a protocol to extinguish this fear. Classically, this phase is placed 24 hours after the conditioning phase.
The extinction protocols model the relearning of the normal (non-fear-motivated) response to the cue (sound) and are very useful in modeling PTSD. • Fear stabilization: It can be useful, to assess the performance of a treatment, to add a stabilization phase after the extinction phase, spaced 24 h apart. Typically, this phase puts the animals back under the extinction phase conditions. It then allows the detection of staggered performances of the treatments, but also of the resurgence of tetany (rebound effect).
(§1) In the following examples, the effects of memantine, propranolol and fluoroethylnormemantine (FENM, the subject of the present invention) are studied in naive rats (Wistar) subjected to various tests related to depression or anxiety and then compared.
(§2) The test substances are administered to rats intraperitoneally in a volume of 5 ml/kg, 30 minutes before the behavioral tests are performed.
(§3) The injected solutions contain either of the molecules in the form of one of their salts, a hydrochloride (memantine·HCl and FENM·HCl) for the nitrogen derivatives and as such for propranolol, at the concentrations indicated below in a mixture of 95% (NaCl 0.9% ww in water)/5% ethanol. In each experiment, the dose per kilogram is referenced.
The applicant used a fear conditioning test in which the clue (neutral conditional stimulus) is a sound, coupled with a danger (aversive unconditional stimulus) which is an electric shock delivered by the floor of the box. This conditioning is followed by a fear extinction phase with injection of the treatment solutions to be tested and then by a test phase itself. • Fear Conditioning Phase (FC): fear conditioning takes place in a standard conditioning box (context A, white box in Table 7) and the rats (8 per group) are subjected to 3 “sound-electroshock” pairs at times of 180 s, 381 s and 582 s after being placed in the box. Each sound lasts 20 s and each electroshock lasts 1 s with a current of 1 mA. • The fear extinction phase (Ext.) is conducted as follows: the rats are placed in a box similar to the one that will be used for the final test (context B, pink box in Table 7), for a 25-minute session. During this session, 24 presentations are made with the same sound as that used during the conditioning session (20 s each, 35 s apart). Of course, no electric shock is delivered, and the percentage of time of tetany (“freezing”) during the phase is recorded. • Stabilization phase: the day after the extinction phase, 30 minutes before the test phase, […] of 3 sounds (same sequence as used for conditioning), recording the percentage of time they remain still during this test phase. […]

naive rats (Wistar) [2] = experiment: Light-dark box test; assay type: in vivo, rat
Protocol: as §1, §2, §3
For each paradigm, and each solution tested, 12 rats are subjected to injection and behavioral testing. The control solution is a saline solution.
In this example the light-dark box test was used. As it is based on rodents' innate aversion to light, the increase in time spent in the lighted compartment is therefore considered to reflect a lower level of anxiety.
The box used for this test is divided into a white behavior with high-power illumination (600 lux) and a black behavior with a lid (about 5 lux). The number of entries and the time spent in the illuminated compartment (anxiety zone) are recorded for 10 minutes by a video monitoring system. In addition, the system makes it possible to differentiate the periods between 0 and 5 minutes and between 5 and 10 minutes.

naive rats (Wistar) [3] = experiment: Forced swimming test; assay type: in vivo, rat; conditions: for Rat behavior over the period of time 1 to 6 minutes: frenetic movement / Rat behavior over the period of time 1 to 6 minutes: immobility (ies): second day, 30 min before; for Rat behavior over the period of time 1 to 6 minutes: immobility (ies): in s; for immobility time compared with control: all dose levels, particularly 10 mg/kg, p<0.001
Protocol: • the forced swimming test: This test has been used for a number of years with rats or mice to test the activity of antidepressants (F. Borsini, Psychopharmacology (1988) 94:147-160) and consists of placing the animal in a bowl filled with room-temperature water. After 15 minutes (pre-test session), the animal is taken out of the water and dried. Twenty-four hours later, the animal is again exposed to the previous conditions and the time of total immobility for a period of 5 minutes is recorded (test session). The animal is considered immobile when it performs only the movements necessary to keep its head out of the water. This immobility is easier to assess in rats than in mice, which have less explicit movements.
as §1, §2, §3
In the forced swimming test, rats (12 per group) are forced to swim in a tank filled with 23° C. water (10 minutes on the first day to allow for habituation to the medium and 6 minutes on the second day).
The behavior of the rats (stopping swimming, decreasing activity) is quantified by a video monitoring system.
The therapeutic solutions to be tested are administered on the second day 30 minutes before the experiment.

NMDA receptor = experiment: Affinity with the NMDA receptor; assay type: binding; conditions: compared with memantine

Compound	Time spent in the lighted compartment (naive rats (Wistar) [2]; 1 mg/kg i.p., 0-5 min)	Time spent in the lighted compartment (naive rats (Wistar) [2]; 1 mg/kg i.p., 0-10 min)	Time spent in the lighted compartment (naive rats (Wistar) [2]; 1 mg/kg i.p., 5-10 min)	Time spent in the lighted compartment (naive rats (Wistar) [2]; 3 mg/kg i.p., 0-5 min)	Time spent in the lighted compartment (naive rats (Wistar) [2]; 3 mg/kg i.p., 0-10 min)	Time spent in the lighted compartment (naive rats (Wistar) [2]; 3 mg/kg i.p., 5-10 min)	Time spent in the lighted compartment (naive rats (Wistar) [2]; 10 mg/kg i.p., 0-5 min)	Time spent in the lighted compartment (naive rats (Wistar) [2]; 10 mg/kg i.p., 0-10 min)	Time spent in the lighted compartment (naive rats (Wistar) [2]; 10 mg/kg i.p., 5-10 min)	Rat behavior over the period of time 1 to 6 minutes: frenetic movement (naive rats (Wistar) [3]; 1 mg/kg i.p.)	Rat behavior over the period of time 1 to 6 minutes: immobility (ies) (naive rats (Wistar) [3]; 1 mg/kg i.p.)	Rat behavior over the period of time 1 to 6 minutes: frenetic movement (naive rats (Wistar) [3]; 3 mg/kg i.p.)	Rat behavior over the period of time 1 to 6 minutes: immobility (ies) (naive rats (Wistar) [3]; 3 mg/kg i.p.)	Rat behavior over the period of time 1 to 6 minutes: frenetic movement (naive rats (Wistar) [3]; 10 mg/kg i.p.)	Rat behavior over the period of time 1 to 6 minutes: immobility (ies) (naive rats (Wistar) [3]; 10 mg/kg i.p.)	immobility time compared with control (naive rats (Wistar) [3])	other results
NC12CC3CC(C1)CC(CCF)(C3)C2	42.4 s	71.0 s	28.6 s	34.4 s	67.5 s	33.2 s	96.8 s	171.9 s	75.0 s	43.2 s	157.8	47.6 s	164.3	60.6 s	140.5	very significant (p<0.001) decrease	Percentage of time of tetany (freezing) during the stabilization phase (naive rats (Wistar) [1]; 5 mg/kg, Early treatment: one injection 30 minutes before the extinction phase): 21%; Percentage of time of tetany (freezing) during the stabilization phase (naive rats (Wistar) [1]; 5 mg/kg, Late treatment: one injection 30 minutes before the stabilization phase): 26%; Percentage of time of tetany (freezing) during the stabilization phase (naive rats (Wistar) [1]; 5 mg/kg, Protective effect: one injection 30 minutes before the conditioning phase): 23%; Percentage of time of tetany (freezing) during the stabilization phase (naive rats (Wistar) [1]; 10 mg/kg, Early treatment: one injection 30 minutes before the extinction phase): 25%; Percentage of time of tetany (freezing) during the stabilization phase (naive rats (Wistar) [1]; 10 mg/kg, Late treatment: one injection 30 minutes before the stabilization phase): 4%; Percentage of time of tetany (freezing) during the stabilization phase (naive rats (Wistar) [1]; 10 mg/kg, Protective effect: one injection 30 minutes before the conditioning phase): 6%; Percentage of time of tetany (freezing) during the stabilization phase (naive rats (Wistar) [1]; 20 mg/kg, Early treatment: one injection 30 minutes before the extinction phase): 6%; Percentage of time of tetany (freezing) during the stabilization phase (naive rats (Wistar) [1]; 20 mg/kg, Late treatment: one injection 30 minutes before the stabilization phase): 2%; Percentage of time of tetany (freezing) during the stabilization phase (naive rats (Wistar) [1]; 20 mg/kg, Protective effect: one injection 30 minutes before the conditioning phase): 2%; tetany in the stabilization phase compared with control (naive rats (Wistar) [1]; administered at conditioning, early or late post-traumatic treatment): virtually eliminate; time spent in the lighted compartment compared with the control (naive rats (Wistar) [2]; 10 mg/kg, Student's t-test p<0.01): large and significant increase; affinity with the NMDA receptor (measured in Ki) (NMDA receptor): same order of magnitude as that of memantine
CC12CC3CC(C)(C1)CC(N)(C3)C2 [Memantine, memantine]	34.2 s	59.9 s	25.7 s	26.2 s	34.3 s	8.1 s	31.0 s	32.0 s	0.9 s	55.1 s	139.8	48.7 s	145.7	67.2 s	119.7	very significant (p<0.001) decrease	rebound effect (increased tetany) compared with control during the stabilization phase (naive rats (Wistar) [1]; 10 mg/kg administered during the extinction phase): +25%; time spent in the lighted compartment compared with the control (naive rats (Wistar) [2]; memantine 1, 3, 10 mg/kg): no effect was observed

Reference: patent US11464751B2, “Use of fluoroethylnormemantine for the prevention and treatment of anxiety” (REST THERAPEUTICS, priority 2017, dated 2022)
